# Assay results published in patent US8329721B2, “Hydroxy and alkoxy substituted 1H-imidazonaphthyridines and methods” (3M Innovative Properties Company, priority 2006, dated 2012).
row,SMILES,melting point [°C]
1,"CCOc1nc2c(N)nc3cccnc3c2n1CC1CCOCC1 [Example 3, 2-Ethoxy-1-(tetrahydro-2H-pyran-4-ylmethyl)-1H-imidazo[4,5-c][1,5]naphthyridin-4-amine]",197 to 200
2,"Nc1nc2cccnc2c2c1nc(O)n2CC1CCOCC1 [Example 4, 4-Amino-1-(tetrahydro-2H-pyran-4-ylmethyl)-1H-imidazo[4,5-c][1,5]naphthyridin-2-ol]",250 to 260

# More lines, now with the values ahead:
row,melting point [°C],SMILES
1,> 250,"Nc1nc2cccnc2c2c1nc(O)n2Cc1ccccc1 [Example 2, 4-Amino-1-benzyl-1H-imidazo[4,5-c][1,5]naphthyridin-2-ol]"
2,187 to 190,"CCOc1nc2c(N)nc3cccnc3c2n1[C@@H](C)c1ccccc1 [Example 5, 2-Ethoxy-1-[(1S)-1-phenylethyl]-1H-imidazo[4,5-c][1,5]naphthyridin-4-amine]"
3,241 to 243,"C[C@@H](c1ccccc1)n1c(O)nc2c(N)nc3cccnc3c21 [Example 6, 4-amino-1-[(1S)-1-phenylethyl]-1H-imidazo[4,5-c][1,5]naphthyridin-2-ol]"
